Source: US8952024B2, “Herbicidal pyrimidone derivatives” (E I du Pont de Nemours and Company, priority 2009, dated 2015)

Assays:
Format in all cases: in vivo
[1] = test system: ducksalad (Heteranthera limosa); assay: Test B flooded paddy test; settings: for Plant response rating, Flood, Ducksalad: 250 g ai/ha, flooded paddy test, visual rating on 0 to 100 scale (0 no effect, 100 complete control) after 13 to 15 days; for Plant response rating, Ducksalad: Flood (flooded paddy test), 13 to 15 days
Outline: (§1)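 Rice, umbrella sedge, ducksalad and barnyardgrass were grown to the 2-leaf stage, flooded to 3 cm, and compound was applied directly to the paddy water, with that depth kept throughout. After 13 to 15 days in the greenhouse, plants were visually rated against controls on a 0 (no effect) to 100 (complete control) scale.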

rice (Oryza sativa) = assay: Test B flooded paddy test; settings: for Plant response rating, Flood, Rice: 250 g ai/ha, flooded paddy test, visual rating on 0 to 100 scale (0 no effect, 100 complete control) after 13 to 15 days; for Plant response rating, Rice: Flood (flooded paddy test), 13 to 15 days
Outline: as §1

[2] = test system: windgrass (Apera spica-venti); assay: Test B postemergence plant response
Outline: (§2)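 Plants at the 1- to 4-leaf stage (2 to 18 cm tall), grown in pots of peat moss/vermiculite medium with wetting agent and starter nutrients, received postemergence applications of test chemicals. After 13 to 15 days in a greenhouse, injury was rated visually against untreated controls on a 0 (no effect) to 100 (complete control) scale.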

[3] = test system: chickweed (Stellaria media); assay: Test B postemergence plant response
Outline: as §2

[4] = test system: canarygrass (Phalaris minor); assay: Test B postemergence plant response
Outline: as §2

[5] = test system: velvetleaf (Abutilon theophrasti); assay: Test A pre-/postemergence plant response
Outline: (§3)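 Formulated test chemicals (non-phytotoxic solvent, surfactant) were sprayed onto soil right after planting and simultaneously onto young plants at one to two leaves, 2 to 10 cm tall. Plants stayed in the greenhouse about ten days; injury was then visually scored against untreated controls, from 0 (no effect) to 100 (complete control).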

[6] = test system: large crabgrass (Digitaria sanguinalis); assay: Test A pre-/postemergence plant response
Outline: as §3

corn (Zea mays) = assay: Test A pre-/postemergence plant response
Outline: as §3

[7] = test system: giant foxtail (Setaria faberii); assay: Test A pre-/postemergence plant response
Outline: as §3

[8] = test system: barnyardgrass (Echinochloa crus-galli); assay: Test A pre-/postemergence plant response
Outline: as §3

[9] = test system: wheat (Triticum aestivum); assay: Test A pre-/postemergence plant response
Outline: as §3

[10] = test system: pigweed (Amaranthus retroflexus); assay: Test A pre-/postemergence plant response
Outline: as §3

[11] = test system: morningglory (Ipomoea spp.); assay: Test A pre-/postemergence plant response
Outline: as §3

[12] = 62 g ai/ha, scale of 0 to 100 where 0 is no effect and 100 is complete control
[13] = 125 g ai/ha, scale 0 to 100, 0 is no effect, 100 is complete control
[14] = Flood, 31 g ai/ha, scale 0 to 100 (0 no effect, 100 complete control)
[15] = 31 g ai/ha, postemergence, scale 0 to 100, 0 is no effect, 100 is complete control
[16] = 62 g ai/ha, postemergence, 0 is no effect, 100 is complete control, 13 to 15 days
[17] = Postemergence, 250 g ai/ha, scale 0 to 100 (0 no effect, 100 complete control)
[18] = Postemergence, 125 g ai/ha, visual rating after 13 to 15 days, scale 0 (no effect) to 100 (complete control)
[19] = Postemergence, 125 g ai/ha, 0 to 100 scale where 0 is no effect and 100 is complete control
[20] = Postemergence, 500 g ai/ha, 0 to 100 scale, 0 = no effect, 100 = complete control, approx. ten days
[21] = Preemergence, 125 g ai/ha, 0 to 100 scale, 0 = no effect, 100 = complete control
[22] = Preemergence, 500 g ai/ha, visual injury, 0 to 100 scale (0 no effect, 100 complete control), approx. ten days
[23] = 31 g ai/ha, scale of 0 to 100 where 0 is no effect and 100 is complete control
[24] = Postemergence, 62 g ai/ha, scale 0 (no effect) to 100 (complete control), 13 to 15 days
[25] = Postemergence, 125 g ai/ha, visual injury, 0 to 100 scale (0 no effect, 100 complete control), approx. ten days

CC(C)n1c(-c2ccccc2)ncc(C(=O)C2=C(O)CCCC2=O)c1=O [Compound 95]
10: Plant response rating, Corn (corn (Zea mays); [20])
70: Plant response rating, Foxtail, Giant [7, 19] | Plant response rating, Morningglory [11, 21]
85: Chickweed plant response rating (0 to 100 scale) [3, 16]
75: Plant response rating, Chickweed [3, 15]
30: Plant response rating, Flood, Rice (rice (Oryza sativa)) | Plant response rating, Rice (rice (Oryza sativa); [13]) | Plant response rating, Foxtail, Giant [7, 21]
90: Plant response rating, Velvetleaf [5, 21] | Plant response rating, Crabgrass, Large [6, 19] | Plant response rating, Crabgrass, Large [6, 20] | Plant response rating, Crabgrass, Large [6, 22] | Plant response rating, Foxtail, Giant [7, 20] | Plant response rating, Barnyardgrass [8, 20] | Plant response rating, Pigweed [10, 21] | Plant response rating, Morningglory [11, 22]
20: Plant response rating, Flood, Ducksalad [1] | Plant response rating, Rice (rice (Oryza sativa); [12])
50: Plant response rating, Crabgrass, Large [6, 21]
0: Plant response rating, Ducksalad [1, 12] | Plant response rating, Ducksalad [1, 13] | Ducksalad plant response rating [1, 14] | Rice plant response rating (rice (Oryza sativa); [14]) | Plant response rating, Windgrass [2, 15] | Windgrass plant response rating (0 to 100 scale) [2, 16] | Plant response rating, Windgrass [2, 17] | Plant response rating, Canarygrass [4, 15] | Canarygrass plant response rating (0 to 100 scale) [4, 16] | Plant response rating, Canarygrass [4, 18] | Plant response rating, Canarygrass [4, 17] | Plant response rating, Corn (corn (Zea mays); [19]) | Plant response rating, Corn (corn (Zea mays); [21]) | Plant response rating, Corn (corn (Zea mays); [22]) | Plant response rating, Wheat [9, 19] | Plant response rating, Wheat [9, 20] | Plant response rating, Wheat [9, 21] | Plant response rating, Wheat [9, 22]
98: Plant response rating, Chickweed [3, 18]
80: Plant response rating, Barnyardgrass [8, 19] | Plant response rating, Barnyardgrass [8, 22]
40: Plant response rating, Barnyardgrass [8, 21]
100: Plant response rating, Chickweed [3, 17] | Plant response rating, Velvetleaf [5, 19] | Plant response rating, Velvetleaf [5, 20] | Plant response rating, Velvetleaf [5, 22] | Plant response rating, Pigweed [10, 19] | Plant response rating, Pigweed [10, 20] | Plant response rating, Pigweed [10, 22] | Plant response rating, Morningglory [11, 19] | Plant response rating, Morningglory [11, 20]
60: Plant response rating, Foxtail, Giant [7, 22]

O=C1CCCC(O)=C1C(=O)c1cnc(-c2ccsc2)n(-c2ccccc2)c1=O [Compound 56]
90: Plant response rating, Chickweed [3, 15] | Plant response rating, Crabgrass, Large [6, 20] | Plant response rating, Crabgrass, Large [6, 22] | Plant response rating, Foxtail, Giant [7, 20] | Plant response rating, Foxtail, Giant [7, 22] | Barnyardgrass plant response rating [8, 25] | Plant response rating, Barnyardgrass [8, 20] | Plant response rating, Barnyardgrass [8, 22] | Pigweed plant response rating [10, 25] | Plant response rating, Pigweed [10, 21] | Morningglory plant response rating [11, 25] | Plant response rating, Morningglory [11, 22]
50: Plant response rating, Flood, Ducksalad [1] | Plant response rating, Corn (corn (Zea mays); [20]) | Plant response rating, Barnyardgrass [8, 21] | Plant response rating, Morningglory [11, 21]
80: Plant response rating, Velvetleaf [5, 21] | Crabgrass, Large plant response rating [6, 25] | Plant response rating, Crabgrass, Large [6, 21] | Foxtail, Giant plant response rating [7, 25]
95: Plant response rating, Chickweed [3, 24]
0: Plant response rating, Ducksalad [1, 23] | Plant response rating, Rice (rice (Oryza sativa); [23]) | Plant response rating, Rice (rice (Oryza sativa); [12]) | Plant response rating, Canarygrass [4, 15] | Plant response rating, Corn (corn (Zea mays); [21]) | Plant response rating, Corn (corn (Zea mays); [22]) | Wheat plant response rating [9, 25] | Plant response rating, Wheat [9, 20] | Plant response rating, Wheat [9, 21] | Plant response rating, Wheat [9, 22]
40: Plant response rating, Ducksalad [1, 13] | Plant response rating, Windgrass [2, 24] | Plant response rating, Canarygrass [4, 18] | Plant response rating, Canarygrass [4, 17]
98: Plant response rating, Chickweed [3, 18] | Plant response rating, Chickweed [3, 17]
85: Plant response rating, Windgrass [2, 17]
60: Plant response rating, Windgrass [2, 18]
20: Plant response rating, Ducksalad [1, 12] | Plant response rating, Flood, Rice (rice (Oryza sativa))
10: Corn plant response rating (corn (Zea mays); [25])
100: Velvetleaf plant response rating [5, 25] | Plant response rating, Velvetleaf [5, 20] | Plant response rating, Velvetleaf [5, 22] | Plant response rating, Pigweed [10, 20] | Plant response rating, Pigweed [10, 22] | Plant response rating, Morningglory [11, 20]
70: Plant response rating, Foxtail, Giant [7, 21]
15: Plant response rating, Rice (rice (Oryza sativa); [13])
30: Plant response rating, Windgrass [2, 15] | Plant response rating, Canarygrass [4, 24]
